Reference: patent US20240384268A1, “Oligonucleotides” (Hudson Institute of Medical Research, priority 2021, published 2024)
In the oligonucleotide strings, read from the 5' end, every base follows the letter of its sugar. An asterisk marks phosphorothioate; unmarked linkages are phosphodiester. Other units and linkages are bracketed, terminal groups are in braces. A string of capitals states the bases alone. d = 2'-deoxy (DNA); m = 2'-O-methyl

Target: T1, human TLR7 (Homo sapiens, UniProt Q9NYK1)
T1 construct: HA; host or cells: 293XL-hTLR7-HA (HEK293)
T1 sequence (Q9NYK1 27-1049): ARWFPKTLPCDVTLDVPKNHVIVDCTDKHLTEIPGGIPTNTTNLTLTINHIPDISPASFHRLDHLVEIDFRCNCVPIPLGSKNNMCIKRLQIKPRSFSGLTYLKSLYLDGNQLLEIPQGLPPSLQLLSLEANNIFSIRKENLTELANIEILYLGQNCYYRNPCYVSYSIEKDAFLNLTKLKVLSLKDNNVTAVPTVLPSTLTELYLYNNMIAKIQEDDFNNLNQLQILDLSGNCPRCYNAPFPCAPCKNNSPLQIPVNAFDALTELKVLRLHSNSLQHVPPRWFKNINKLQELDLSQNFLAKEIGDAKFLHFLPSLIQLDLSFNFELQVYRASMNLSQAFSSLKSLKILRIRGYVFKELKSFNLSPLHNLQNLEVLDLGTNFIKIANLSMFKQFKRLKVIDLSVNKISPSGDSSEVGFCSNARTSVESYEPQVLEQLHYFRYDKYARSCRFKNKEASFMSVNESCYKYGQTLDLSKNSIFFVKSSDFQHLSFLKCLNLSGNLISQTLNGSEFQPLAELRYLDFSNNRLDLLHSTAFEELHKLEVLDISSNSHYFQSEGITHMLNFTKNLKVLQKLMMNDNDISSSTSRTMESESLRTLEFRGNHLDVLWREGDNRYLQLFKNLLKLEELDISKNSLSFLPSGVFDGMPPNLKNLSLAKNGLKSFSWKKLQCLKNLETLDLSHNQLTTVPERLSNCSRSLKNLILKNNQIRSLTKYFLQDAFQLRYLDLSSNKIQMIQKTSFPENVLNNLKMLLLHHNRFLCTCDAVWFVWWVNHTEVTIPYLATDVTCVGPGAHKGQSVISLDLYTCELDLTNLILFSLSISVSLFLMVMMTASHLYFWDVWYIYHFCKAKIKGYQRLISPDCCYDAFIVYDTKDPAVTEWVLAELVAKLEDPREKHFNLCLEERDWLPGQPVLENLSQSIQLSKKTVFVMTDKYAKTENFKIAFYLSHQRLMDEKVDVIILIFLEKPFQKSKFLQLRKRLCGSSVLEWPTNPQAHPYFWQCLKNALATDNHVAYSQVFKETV
Test: HEK-TLR7 NF-κB-luciferase reporter, R848 stimulation
Assay type: cell-based
Conditions: for TLR7 400 nM: 3mer 2'OMe ASO at 400 nM; for TLR7 400 nM / TLR7 2 uM / inhibition of TLR7 by 3-mer 2′OMe oligos (in words): HEK-TLR7; for TLR7 400 nM / TLR7 2 uM: value relative to Ligand only = 1.000, NT = 0.000; for TLR7 2 uM: 3mer 2'OMe ASO at 2 uM; for inhibition of TLR7 by 3-mer 2′OMe oligos (in words): 400 nM and 2 μM 3-mer, ~30 min, R848 1 μg/ml; for TLR7 100 nM (averaged NF-κB-Luciferase level relative to R848 condition): ASO 100 nM; for TLR7 100 nM (averaged NF-κB-Luciferase level relative to R848 condition) / TLR7 500 nM (averaged NF-κB-Luciferase level relative to R848 condition): relative to R848 only, given as fraction; for TLR7 500 nM (averaged NF-κB-Luciferase level relative to R848 condition): ASO 500 nM

| Substance | TLR7 400 nM | TLR7 2 uM | inhibition of TLR7 by 3-mer 2′OMe oligos (in words) | TLR7 100 nM (averaged NF-κB-Luciferase level relative to R848 condition) | TLR7 500 nM (averaged NF-κB-Luciferase level relative to R848 condition) |
| --- | --- | --- | --- | --- | --- |
| mAmUmC (mA*mU*mC) [AUC, 3-mer 2′OMe PS oligo] | 0.950 | 0.430 | inhibiting TLR7 |  |  |
| dA*dG*dC (DNA AGC; listed as DNA, chemistry not fully specified) | 1.401 | 0.726 |  |  |  |
| UCC (mU*mC*mC) | 1.166 | 0.958 |  |  |  |
| AUU (mA*mU*mU) | 1.221 | 0.700 |  |  |  |
| UUA (mU*mU*mA) | 0.997 | 1.042 |  |  |  |
| GTCCCCTGTTGACTGG (antisense; LNA-modified, pattern not given here) [HPRT LNA-489 KL] |  |  |  | 0.557 | 0.123 |
| dC*dA*dC (CAC; listed as RNA, chemistry not fully specified) | 1.330 | 0.932 |  |  |  |
| dA*dA*dA (DNA AAA; listed as DNA, chemistry not fully specified) | 1.352 | 0.867 |  |  |  |
| mGmUmU (mG*mU*mU) [GUU, 3-mer 2′OMe PS oligo] | 0.781 | 0.119 | inhibiting TLR7 |  |  |
| mUmCmG (antisense mU*mC*mG) [660-3b] | 0.979 | 0.982 |  |  |  |
| dG*dC*dG [GCG] | 1.185 | 0.627 |  |  |  |
| CCATCCATGAGGTCCT (antisense; LNA-modified, pattern not given here) [CTNN2B-2545 LNA V1] |  |  |  | 0.992 | 0.644 |
| GCCATGCTGGCTCGGA (antisense; LNA-modified, pattern not given here) [CAMSAP1-2584 LNA V1] |  |  |  | 0.638 | 0.175 |
| ACU (antisense mA*mC*mU) | 1.322 | 0.916 |  |  |  |
